This note sets out measurements from article PMC6271849, “Quantitative Analysis of the Flavonoid Glycosides and Terpene Trilactones in the Extract of Ginkgo biloba and Evaluation of Their Inhibitory Activity towards Fibril Formation of β-Amyloid Peptide” (Molecules, 2014).

SMILES strings stand for the structures.

The assay deals with T1, amyloid β peptide (Aβ42) (Homo sapiens, UniProt P05067).
T1 construct: gene APP; Aβ42 peptide
T1 sequence (P05067 672-713 limits assumed): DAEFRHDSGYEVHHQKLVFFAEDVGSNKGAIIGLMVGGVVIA
Kind of assay: biochemical.
In the case of `C[C@@H]1O[C@@H](OC[C@H]2O[C@@H](Oc3c(-c4ccc(O)c(O)c4)oc4cc(O)cc(O)c4c3=O)[C@H](O)[C@@H](O)[C@@H]2O)[C@H](O)[C@H](O)[C@H]1O` [compound 1, quercetin 3-O-β-D-rutinoside], inhibition was half-maximal at 33 ± 4.84 µM (IC50). As for `C[C@@H]1O[C@@H](Oc2c(-c3ccc(O)c(O)c3)oc3cc(O)cc(O)c3c2=O)[C@H](O[C@@H]2O[C@H](CO)[C@@H](O)[C@H](O)[C@H]2O)[C@H](O)[C@H]1O` [compound 2, quercetin 3-O-α-L-(β-D-glucopyranosyl)-(1,2)-rhamnopyranoside], the figure is 67.1 ± 11.7 µM; as for `C[C@@H]1O[C@@H](Oc2c(-c3ccc(O)c(O)c3)oc3cc(O)cc(O)c3c2=O)[C@H](O[C@@H]2O[C@H](COC(=O)/C=C/c3ccc(O)cc3)[C@@H](O)[C@H](O)[C@H]2O)[C@H](O)[C@H]1O` [compound 6, quercetin 3-O-α-(6′′′-p-coumaroylglucopyranosyl-β-1,2-rhamnopyranoside)], 32.6 ± 4.83 µM.
